One data set relates to S. aureus Smith. As to the kind of experiment: In vitro antibacterial activity (MIC), S. aureus Smith. The following applies: Staphylococcus aureus, 18 h.
The test system of another data set is S. aureus 53-180. As to the kind of experiment: In vitro antibacterial activity (MIC), S. aureus 53-180. The settings on record: Staphylococcus aureus, 53180, 18 h.
Data set [1] has as its system lymphocytic leukemia P-388. Put plainly: Activity in mice against lymphocytic leukemia P-388. The class given is in vivo. The following applies: Mus musculus, P388, ip, mice, I.P., read-out: T/C.
The next data set has as its system S. paratyphi 11737. Put plainly: In vitro antibacterial activity (MIC), S. paratyphi 11737. The class given is cell-based. The settings on record: Salmonella enterica, 18 h.
A further data set deals with E. coli 9637. Put plainly: In vitro antibacterial activity (MIC), E. coli 9637. The settings on record: Escherichia coli, 9637, 18 h.
A further data set concerns P. vulgaris 6896. As to the kind of experiment: In vitro antibacterial activity (MIC), P. vulgaris 6896. The following applies: Proteus vulgaris, 6896, 18 h.
Data set [2] has as its system Plasmodium berghei KBG 173. As to the kind of experiment: Antimalarial blood schizonticidal test in mice. In kind it is in vivo, Plasmodium berghei (infected ICR/HA Swiss mice). Further details: ΔMST (increase in mean survival time): unit: days. The settings on record: s.c.; for ED100 / minimal effective dose: Plasmodium berghei, sc, single dose; for ED100: read-out: Lowest Dose Curing All Mice; for minimal effective dose: read-out: Min. Curing Dose; for Cure/Treat at Min. Curing Dose: at the Min. Curing Dose. In outline:
(§1)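 Single s.c. doses (peanut oil vehicle, graded levels) given 72 h after i.p. inoculation of young Swiss mice with P. berghei KBG 173 blood (4 × 10^7 parasitized cells). Activity judged by cures (alive at 60 days) or significant mean survival gain over untreated controls, without drug-related deaths.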

A short description of data set [3]: Antimalarial blood schizonticidal test in mice. In kind it is in vivo, Plasmodium berghei (infected ICR/HA Swiss mice). On the set-up: ΔMST (increase in mean survival time): unit: days. The settings on record: mouse, in vivo, sc, single dose, read-out: Highest Non-Lethal Dose. In outline: as §1
The subject of another data set is N. catarrhalis 8193. Put plainly: In vitro antibacterial activity (MIC), N. catarrhalis 8193. The following applies: 18 h.
The subject of the next data set is K. pneumoniae 10031. Put plainly: In vitro antibacterial activity (MIC), K. pneumoniae 10031. The settings on record: Klebsiella pneumoniae, 10031, 18 h.
Where [4] appears, read: infected mice, highest dose with no deaths for any reason.
Where [5] appears, read: 336 h, alive on day 14 considered cured, no 60-day data.

As a reminder, the MIC is the least concentration at which growth counts as inhibited.

≈ marks a conversion by molar mass, not a printed value. Where two headings read alike, the source gives them in different places. Bounds are passed on as bounds.

Regarding `CCOC(=O)c1ccc(Cn2ccc3c4c(N)nc(N)nc4ccc32)cc1` [Example 17], the MIC in the data set with S. aureus Smith is 1.95 µg/mL (≈ 5.4 µM); with S. aureus 53-180 it was 1.95 µg/mL (≈ 5.4 µM); in the data set on S. paratyphi 11737, > 250 µg/mL; in the data set with E. coli 9637, 7.81 µg/mL (≈ 21.6 µM); in the data set with P. vulgaris 6896, > 250 µg/mL; in the data set with N. catarrhalis 8193, 0.488 µg/mL (≈ 1.35 µM). Moreover, the minimum inhibitory concentration (MIC) against K. pneumoniae 10031 was 1.95 µg/mL (≈ 5.4 µM). Moreover, the response vs control in vivo at 10 mg/kg in [1] stood at 141%. Besides, the ED100 in data set [2] (1440 h, 60-day survivors) was 20 mg/kg. Also, the minimal effective dose in data set [2] (1440 h, 60-day survivors) is 10 mg/kg. Besides, the “Cure/Treat at Min. Curing Dose” value in data set [2] (60-day survivors) was 1/5. Further, in [2] (dose 2.5 mg. per kg.), the “ΔMST (increase in mean survival time)” value turned out to be 6.0. Moreover, the MTD in [3] (setting [4]) came out at 80 mg/kg.
Take `Nc1nc(N)c2c(ccc3c2ccn3Cc2cccc([N+](=O)[O-])c2)n1` [Example 18, 7-[(3-nitrophenyl)methyl]-7H-pyrrolo[3,2-f]quinazoline-1,3-diamine]: the MIC stood at 0.122 µg/mL (≈ 0.365 µM) in the data set on S. aureus Smith; 0.061 µg/mL (≈ 0.182 µM) in the data set on S. aureus 53-180; 0.976 µg/mL (≈ 2.92 µM) against S. paratyphi 11737; 0.488 µg/mL (≈ 1.46 µM) in the data set with E. coli 9637; 3.9 µg/mL (≈ 11.7 µM) against P. vulgaris 6896; 0.0152 µg/mL (≈ 0.0455 µM) in the data set on N. catarrhalis 8193. In the data set with K. pneumoniae 10031, this molecule gave an MIC of 0.122 µg/mL (≈ 0.365 µM). In data set [1], the response vs control in vivo at 5 mg/kg is 163%. Also, the ED100 in data set [2] (1440 h, 60-day survivors) is 10 mg/kg. Besides, the minimal effective dose in data set [2] (1440 h, 60-day survivors) amounted to 2.5 mg/kg. Moreover, the “Cure/Treat at Min. Curing Dose” value in data set [2] (60-day survivors) is 3/5. Besides, in [2] (dose 2.5 mg. per kg.), the “ΔMST (increase in mean survival time)” value is recorded as 7.4. Also, in data set [3] (setting [4]), the MTD is 40 mg/kg.
On to `CC(C)(C)c1ccc(Cn2ccc3c4c(N)nc(N)nc4ccc32)cc1` [Example 30], for which the MIC in the data set on S. aureus Smith was 7.81 µg/mL (≈ 22.6 µM); with S. aureus 53-180 it was 3.9 µg/mL (≈ 11.3 µM); in the data set with S. paratyphi 11737, > 250 µg/mL; in the data set with E. coli 9637, 250 µg/mL (≈ 724 µM); in the data set with P. vulgaris 6896 it was > 250 µg/mL; in the data set on N. catarrhalis 8193, 0.976 µg/mL (≈ 2.83 µM). The same molecule gave an MIC in the data set on K. pneumoniae 10031 of 3.9 µg/mL (≈ 11.3 µM). Moreover, in [1], the response vs control in vivo at 5 mg/kg stood at 125%.
Take `Nc1nc(N)c2c(ccc3c2ccn3Cc2ccncc2)n1` [Example 45]: the MIC in the data set on S. aureus Smith came out at 0.122 µg/mL (≈ 0.42 µM); in the data set on S. aureus 53-180, 0.122 µg/mL (≈ 0.42 µM); in the data set with S. paratyphi 11737, 0.488 µg/mL (≈ 1.68 µM); in the data set with E. coli 9637 it was 0.244 µg/mL (≈ 0.84 µM); against P. vulgaris 6896, 0.488 µg/mL (≈ 1.68 µM); against N. catarrhalis 8193 it was 0.0038 µg/mL (≈ 0.0131 µM). The molecule further gave an MIC in the data set with K. pneumoniae 10031 of 0.122 µg/mL (≈ 0.42 µM). The response vs control in vivo at 15 mg/kg in [1] (15 mg/kg) worked out at 142%. Besides, the minimal effective dose in [2] (1440 h, 60-day survivors) was 80 mg/kg. Moreover, the “Cure/Treat at Min. Curing Dose” value in [2] (60-day survivors) is listed as 3/5. In data set [2] (dose 40 mg. per kg.), the “ΔMST (increase in mean survival time)” value is on record as 9.7.
In the case of `CS(=O)(=O)c1ccc(Cn2ccc3c4c(N)nc(N)nc4ccc32)cc1` [Example 63, 7-[(4-Methylsulfonylphenyl)methyl]-7H-pyrrolo[3,2-f]quinazoline-1,3-diamine], the MIC in the data set with S. aureus Smith amounted to 0.122 µg/mL (≈ 0.332 µM); against S. aureus 53-180 it was 0.122 µg/mL (≈ 0.332 µM); in the data set with S. paratyphi 11737, 0.976 µg/mL (≈ 2.66 µM); against E. coli 9637, 0.976 µg/mL (≈ 2.66 µM); in the data set with P. vulgaris 6896 it was 7.81 µg/mL (≈ 21.3 µM); against N. catarrhalis 8193 it was 0.0152 µg/mL (≈ 0.0414 µM). In the data set on K. pneumoniae 10031, this molecule showed an MIC of 0.122 µg/mL (≈ 0.332 µM). The response vs control in vivo at 10 mg/kg in data set [1] came out at 136%. Moreover, in [2] (1440 h, 60-day survivors), the minimal effective dose was determined as 10 mg/kg. Also, the “Cure/Treat at Min. Curing Dose” value in data set [2] (60-day survivors) is on record as 1/5. In addition, in [2] (dose 5 mg. per kg.), the “ΔMST (increase in mean survival time)” value was determined as 6.5.
On to `Cc1ccc(C)c(Cn2c(C)cc3c4c(N)nc(N)nc4ccc32)c1` [Example 103], for which the MIC in the data set with S. aureus Smith is 31.3 µg/mL (≈ 94.4 µM); against S. aureus 53-180, 7.81 µg/mL (≈ 23.6 µM); with S. paratyphi 11737, > 250 µg/mL; in the data set with E. coli 9637, 250 µg/mL (≈ 754 µM); in the data set with P. vulgaris 6896, > 250 µg/mL; against N. catarrhalis 8193, 1.95 µg/mL (≈ 5.88 µM). Further, inhibition of growth in the data set with K. pneumoniae 10031 (MIC) required 15.6 µg/mL (≈ 47.1 µM). In addition, the ED100 in data set [2] (setting [5]) is 5 mg/kg. The minimal effective dose in data set [2] (setting [5]) worked out at 1.25 mg/kg. Also, in [2] (alive on day 14 considered cured), the “Cure/Treat at Min. Curing Dose” value is on record as 1/5. Also, the “ΔMST (increase in mean survival time)” value in data set [2] (dose 1.25 mg. per kg., alive on day 14 considered cured, no 60-day data) is listed as 6.8. The MTD in data set [3] (alive on day 14 considered cured, no 60-day data) came out at 80 mg/kg.

The values are drawn from patent publication US4118561A, “7-(Substituted)-7H-pyrrolo[3,2-f]quinazoline-1,3-diamines” (priority 1977, dated 1978).
